From patent publication US9993482B2, “Pharmaceutical combination comprising a class III receptor tyrosine kinase inhibitor and the alkylating histone-deacetylase inhibitor fusion molecule EDO-S101 together with its use in the treatment of cancer” (priority 2014, dated 2018)
Like-named read-outs stand apart in the source and are kept apart here.

What was measured:
[1] = test system: acute myeloid leukemia cell line MV-4-11; assay: MV-4-11 cell survival, CellTiter-Glo, single drug testing; type: cell-based; details: Homo sapiens, MV4-11, 72 h
Experimental: Culture media was purchased from GIBCO, USA.
(§1) Equipment used was the EnVision Multi Label Reader, PerkinElmer (USA). CO2 Water Jacketed Incubator, Therma (USA). Reverse microscope, Chongguang XDS-1B, Chongqing Guangdian Corp. (Chongqing, P.R.China).
(§2) The cells were harvested respectively during the logarithmic growth period and counted with a hemocytometer.
(§3) For single drug testing, the cell concentrations were adjusted to 4.44×10^4 cells/ml with the medium supplemented with 10% FBS. 90 μl cell suspensions were added to 96-well plates, such that the final cell density was 4×10^3 cells/well. The appropriate cell density was determined and adjusted according to the results of our first test.
The next day, 10 μl (10×) of drug solution was prepared and dispensed in each well (triplicate for each drug concentration). […] The contents were mixed for 2 minutes on an orbital shaker to induce cell lysis. The plate was allowed to incubate at room temperature for 10 minutes to stabilize the luminescent signal. Finally, the luminescence was recorded using an EnVision Multi Label Reader.
(§4) In order to calculate IC50, a dose-responsive curve was fitted using nonlinear regression model with a sigmoidal dose response. The formula of surviving rate is shown below, and the IC50 was automatically produced by GraphPad Prism 5.0.

[2] = test system: acute myeloid leukemia cell line MV-4-11; assay: MV-4-11 cell survival, CellTiter-Glo, two drug combination testing (CalcuSyn); type: cell-based; details: MV-4-11, 72 h, combination ratio 1:0.00120494
Experimental: (§5) The acute myeloid leukemia cell line MV-4-11 (obtained from the ATCC) was cultured in media supplemented with 10% fetal bovine serum (FBS) at a temperature of 37° C., 5% CO2 and 95% humidity. Culture media was purchased from GIBCO, USA. The cells were plated out in 96-Well Flat Clear Bottom Black Polystyrene TC-Treated Microplates (Cat#3603, Corning®).
as §1
(§6) The cells were harvested respectively during the logarithmic growth period and counted with a hemocytometer. The cell viability is over 98% by trypan blue exclusion.
(§7) For two drug combination testing, the cell concentrations were adjusted to 5.00×10^4/ml with the medium supplemented with 10% FBS. 80 μl cell suspensions were added to 96-well plates, such that the final cell densities were 4×10^3 cells/well. The appropriate cell density was determined and adjusted according to the results of our first test.
The next day, 10 μl (10×) of each drug solution was prepared and dispense in each well simultaneously (triplicate for each concentration). After 72 h incubation, 100 μL […]-GLO® Reagent was added to each well. The contents were mixed for 2 minutes on an orbital shaker to induce cell lysis. The plate was allowed to incubate at room temperature for 10 minutes to stabilize luminescent signal. Then the luminescence was recorded using EnVision Multi Label Reader.
as §4, with “5.0. The surviving rate (%)=(LumTest article−LUMMedium control)/(LUMNone treated−LUMMedium control)×100%.” for “5.0.”
(§8) Compound interactions were calculated by multiple drug effect analysis and performed by the median equation principle with CalcuSyn software from the mean affected fraction at each drug ratio concentration of each drug according to the methodology described by Chou and Talalay (Chou et al., Adv. Enzyme Regul., 22, 27-55 (1984)), that calculates a combination index (CI) with the following interpretation: • CI>1: antagonist effect, CI=1: additive effect and CI<1 synergistic effect.
(§9) The CI was calculated from the mean affected fraction at each drug ratio concentration of each drug.

[3] = test system: acute myeloid leukemia cell line MOLM-13; assay: MOLM-13 cell survival, CellTiter-Glo, single drug testing; type: cell-based; details: Homo sapiens, MOLM-13, 72 h
Experimental: as §5, with “MOLM-13” for “MV-4-11”, “FBS” for “fetal bovine serum (FBS)”, “[…]” for “TC-Treated”
as §1, §2, §3
The next day, 10 μl (10×) of drug solution was prepared and dispensed in each well (triplicate for each drug concentration). After 72 h incubation, 100 μl CellTiter-Glow Reagent was added to each well. The contents were mixed for 2 minutes on an orbital shaker to induce cell lysis. The plate was allowed to incubate at room temperature for 10 minutes to stabilize the luminescent signal. Finally, the luminescence was recorded using an EnVision Multi Label Reader.
as §4, with “5.0. The surviving rate (%)=(LumTest article−LUMMedium control)/(LumNone treated−LUMMedium control)×100%.” for “5.0.”

[4] = test system: acute myeloid leukemia cell line MOLM-13; assay: MOLM-13 cell survival, CellTiter-Glo, two drug combination testing (CalcuSyn); type: cell-based; details: MOLM-13, 72 h, combination ratio 1:0.00264302
Experimental: as §5, with “MOLM-13” for “MV-4-11”, “FBS” for “fetal bovine serum (FBS)”, “[…]” for “TC-Treated”
as §1, §6, §7
The next day, 10 μl (10×) of each drug solution was prepared and dispense in each well simultaneously (triplicate for each concentration). After 72 h incubation, 100 μl CellTiter-Glo® Reagent was added to each well. The contents were mixed for 2 minutes on an orbital shaker to induce cell lysis. The plate was allowed to incubate at room temperature for 10 minutes to stabilize luminescent signal. Then the luminescence was recorded using EnVision Multi Label Reader.
as §4, with “5.0. The surviving rate (%)=(LumTest article−LUMMedium control)/(LumNone treated−LUMMedium control)×100%.” for “5.0.”
as §8, with “Talalay,” for “Talalay (Chou et al., Adv. Enzyme Regul., 22, 27-55 (1984)),”
as §9

[5] = test system: multiple myeloma cell lines; details: in vitro; cited from earlier work

SMILES	IC50 [1] [nM]	DRI values at ED75 [2]	DRI values at ED90 [2]	IC50 ([3]; FIG. 3 single drug test using different doses (at 1:2 serial dilutions)) [nM]	IC50 ([3]; FIG. 3 single drug test with cisplatin control) [nM]	DRI values at ED75 [4]	DRI values at ED90 [4]	activity relative to bendamustin (times greater) [5]	IC50 ([1]; read-out: IC50) [nM]	IC50 ([3]; FIG. 3 single drug test using different doses (at 1:2 serial dilutions), read-out: IC50) [nM]	IC50 ([3]; FIG. 3 single drug test with cisplatin control, read-out: IC50) [nM]
Cn1c(CCCCCCC(=O)NO)nc2cc(N(CCCl)CCCl)ccc21 [EDO-S101]	668	1.368	1.482	1720	708	5.925	8.534	35-100			
CC(C)(C)c1cc(NC(=O)Nc2ccc(-c3cn4c(n3)sc3cc(OCCN5CCOCC5)ccc34)cc2)no1 [quizartinib, reference compound]		6.146	10.760			3.215	6.645		0.804	4.55	2.11
